Results as given in patent US20130280392A1, “PROCESS FOR CONTROLLING MICROORGANISMS IN BEVERAGE PRODUCTS” (DeLaval Holding AB, priority 2011, published 2013).

What was measured:
[1] = Chlorine dioxide demand of apple and carrot juice (HACH DPD Method #10126); format: physicochemical; conditions: 22° C., 10 minutes
Description: In this experiment, apple juice and carrot juice were exposed to pure and stable chlorine dioxide (CDG Solution 3000™, CDG Environmental, LLC) in order to determine their respective chlorine dioxide demands, as determined by HACH DPD Method for Chlorine dioxide (Method #10126). The juice samples were exposed to the chlorine dioxide under room temperature conditions (22° C.), and then the residual concentrations determined 10 minutes after exposure. It can be seen that the chlorine dioxide demands were relatively high.

[2] = system: Alicyclobacillus acidoterrestris ATCC 49025; assay: Germicidal efficacy of PAA and chlorine dioxide in dilute nutrient solution, apple juice and carrot juice, MPN viability count; format: cell-based; conditions: for LR: 22° C., 10 minutes contact, inoculum 1.40×10^7 CFU/ml; for reduction in the bacteria: all treated samples of Table 3 (5 and 10 ppm; nutrient solution, apple juice, carrot juice)
Description: In this experiment, the germicidal efficacy of various concentrations of PAA and chlorine dioxide (by dilution of CDG Solution 3000™, CDG Environmental LLC) at 22° C. after 10 minutes of contact time was determined in a dilute nutrient solution (Tryptone pancreatic digest of casein 1.0 g/L and NaCl 8.5 g/L), apple juice, and carrot juice. Alicyclobacillus acidoterrestris ATCC 49025 was used as the inoculum at a concentration of 1.40×10^7 CFU/ml. After the subscribed contact time, the PAA was neutralized with D/E broth and chlorine dioxide with a peroxide neutralizer, and a viability count for each of the juices was performed using the most probable number technique (MPN). The results are shown in Table 3, and graphically in FIG. 5.

[3] = Degradation of PAA in juices over time, residual PAA by titration with 0.1N sodium thiosulfate; format: physicochemical; conditions: for PAA concentration (below detectable limit): after 10 min at 195° F. (90.5° C.); for half-life at 100 ppm: room temperature
Description: The half life of PAA decreases with increasing temperature. The half life of 100 ppm solution of PAA in carrot juice (Brix=8.8) at room temperature is less than 20 min. Similarly, the half life of a 100 ppm solution of PAA in apple juice (Brix=11.4) at room temperature is less than 30 min. After 10 min at 195° F. (90.5° C.), the PAA concentration of a 20 ppm solution of PAA in either carrot (Brix=8.8) or apple juice (Brix=11.4) is below the detectable limit of 0.89 ppm by titration with 0.1N sodium thiosulfate. Thus, when the juice is pasteurized and sent to an evaporator for concentration, any remaining PAA in solution would be converted to acetic acid, water, and oxygen, thereby leaving no or substantially no PAA remaining in the final juice product 32. Briefly, during the titration process, any oxidizing species present in the sample converts a solution of potassium iodide to iodine in the presence of ammonium paramolybdate and phosphoric acid. Subsequently, a starch solution is added to form a deep blue color upon binding iodine. The PAA concentration can be calculated based on the volume of titrant needed to revert the deep blue color.
In this experiment, several juices were dosed with peracetic acid (PAA) (peroxyacetic acid 5.6%, hydrogen peroxide 26.5%) and kept at a controlled temperature (22° C. or 90° C.) for a given period of time to determine how the PAA would degrade over time. At the end of the given time period, the level of PAA remaining in the juice was measured by titration with 0.1N sodium thiosulfate. It can be seen that the PAA decomposed quite rapidly in the various juices, particularly when exposed to elevated temperatures.

[4] = system: Alicyclobacillus acidoterrestris; assay: Antimicrobial efficacy of PAA in organic apple and carrot juice, MPN viability count; format: cell-based; conditions: 22° C.
Description: In this experiment, the antimicrobial efficacy of PAA in organic apple and carrot juice was measured by challenging the juices with 1×10^7 CFU/ml of Alicyclobacillus acidoterrestris, a spore-forming thermophile commonly present in juice operations. Immediately following bacterial challenge, the juice was dosed with different concentrations of PAA and incubated at room temperature (22° C.) for 10 minutes without agitation. After the subscribed contact time, the PAA was neutralized with D/E broth and a viability count for each of the juices was performed using the most probable number technique (MPN).

[5] = apple juice, Brix 11.4, exposed concentration 5 ppm
[6] = apple juice, Brix 11.4, exposed concentration 10 ppm
[7] = apple juice, Brix 11.4, exposed concentration 25 ppm
[8] = apple juice, Brix 11.4, exposed concentration 60 ppm
[9] = carrot juice, Brix 8.8, exposed concentration 5 ppm
[10] = carrot juice, Brix 8.8, exposed concentration 10 ppm
[11] = carrot juice, Brix 8.8, exposed concentration 25 ppm
[12] = carrot juice, Brix 8.8, exposed concentration 60 ppm
[13] = 5 ppm, dilute nutrient solution
[14] = 10 ppm, dilute nutrient solution

## [O][Cl+][O-] [chlorine dioxide]
[1]; [5]
  Demand: >4.95 ppm
  Read Concentration: <0.05 ppm
[1]; [6]
  Demand: 9.32 ppm
  Read Concentration: 0.68 ppm
[1]; [7]
  Demand: 24.3 ppm
  Read Concentration: 0.7 ppm
[1]; [8]
  Demand: 57.8 ppm
  Read Concentration: 2.2 ppm
[1]; [9]
  Demand: >4.95 ppm
  Read Concentration: <0.05 ppm
[1]; [10]
  Demand: >9.95 ppm
  Read Concentration: <0.05 ppm
[1]; [11]
  Demand: >24.97 ppm
  Read Concentration: <0.05 ppm
[1]; [12]
  Demand: 59.87 ppm
  Read Concentration: 0.13 ppm
[2]; 5 ppm, apple juice
  LR: 0.65
[2]; 5 ppm, carrot juice
  LR: 1.12
[2]; [13]
  LR: 1.34
[2]; 10 ppm, apple juice
  LR: 1.18
[2]; 10 ppm, carrot juice
  LR: 1.57
[2]; [14]
  LR: 1.24
[2]
  reduction in the bacteria: ~1 log

## CC(=O)OO [PAA, peracetic acid]
[3]; 20 ppm PAA in apple juice (Brix=11.4)
  PAA concentration (below detectable limit): < 0.89 ppm
[3]; 20 ppm PAA in carrot juice (Brix=8.8)
  PAA concentration (below detectable limit): < 0.89 ppm
[3]; 100 ppm solution of PAA in apple juice (Brix=11.4)
  half-life at 100 ppm: < 30 min
[3]; 100 ppm solution of PAA in carrot juice (Brix=8.8)
  half-life at 100 ppm: < 20 min
[3]; apple juice, Brix 11.4, PAA dosed 20 ppm, 90° C., 10 min, followed by 5 min in ice
  PAA read: <0.98 ppm
[3]; apple juice, Brix 11.4, PAA dosed 100 ppm, 22° C., 60 min
  PAA read: 19.6 ppm
[3]; apple juice, Brix 11.4, PAA dosed 100 ppm, 90° C., 10 min, followed by 5 min in ice
  PAA read: 15.7 ppm
[3]; carrot juice, Brix 8.8, PAA dosed 20 ppm, 90° C., 10 min, followed by 5 min in ice
  PAA read: <0.98 ppm
[3]; carrot juice, Brix 8.8, PAA dosed 100 ppm, 22° C., 60 min
  PAA read: 3.92 ppm
[3]; carrot juice, Brix 8.8, PAA dosed 100 ppm, 90° C., 10 min, followed by 5 min in ice
  PAA read: 2.94 ppm
[4]; PAA dose as low as 0.35 ppm, 10 minutes
  loss in cell viability: substantial loss in cell viability
[4]; all PAA-treated samples, 1×10^7 CFU/ml challenge, 10 minutes (FIG. 4)
  reduction in the bacteria: > 4 log
[2]; 5 ppm, apple juice
  LR: 4.34
[2]; 5 ppm, carrot juice
  LR: 4.18
[2]; [13]
  LR: 4.18
[2]; 10 ppm, apple juice
  LR: 4.48
[2]; 10 ppm, carrot juice
  LR: 4.34
[2]; [14]
  LR: 4.51
[2]
  reduction in the bacteria: > 4 log
